Laboratory results reported in the Kinase Knowledgebase extract (Sharma et al. 2016).

The compounds below were run against EGFR (Human), P00533 [T790M/L858R].
Chain of EGFR (Human), P00533 [T790M/L858R] (P00533 whole entry T790M/L858R, looked up): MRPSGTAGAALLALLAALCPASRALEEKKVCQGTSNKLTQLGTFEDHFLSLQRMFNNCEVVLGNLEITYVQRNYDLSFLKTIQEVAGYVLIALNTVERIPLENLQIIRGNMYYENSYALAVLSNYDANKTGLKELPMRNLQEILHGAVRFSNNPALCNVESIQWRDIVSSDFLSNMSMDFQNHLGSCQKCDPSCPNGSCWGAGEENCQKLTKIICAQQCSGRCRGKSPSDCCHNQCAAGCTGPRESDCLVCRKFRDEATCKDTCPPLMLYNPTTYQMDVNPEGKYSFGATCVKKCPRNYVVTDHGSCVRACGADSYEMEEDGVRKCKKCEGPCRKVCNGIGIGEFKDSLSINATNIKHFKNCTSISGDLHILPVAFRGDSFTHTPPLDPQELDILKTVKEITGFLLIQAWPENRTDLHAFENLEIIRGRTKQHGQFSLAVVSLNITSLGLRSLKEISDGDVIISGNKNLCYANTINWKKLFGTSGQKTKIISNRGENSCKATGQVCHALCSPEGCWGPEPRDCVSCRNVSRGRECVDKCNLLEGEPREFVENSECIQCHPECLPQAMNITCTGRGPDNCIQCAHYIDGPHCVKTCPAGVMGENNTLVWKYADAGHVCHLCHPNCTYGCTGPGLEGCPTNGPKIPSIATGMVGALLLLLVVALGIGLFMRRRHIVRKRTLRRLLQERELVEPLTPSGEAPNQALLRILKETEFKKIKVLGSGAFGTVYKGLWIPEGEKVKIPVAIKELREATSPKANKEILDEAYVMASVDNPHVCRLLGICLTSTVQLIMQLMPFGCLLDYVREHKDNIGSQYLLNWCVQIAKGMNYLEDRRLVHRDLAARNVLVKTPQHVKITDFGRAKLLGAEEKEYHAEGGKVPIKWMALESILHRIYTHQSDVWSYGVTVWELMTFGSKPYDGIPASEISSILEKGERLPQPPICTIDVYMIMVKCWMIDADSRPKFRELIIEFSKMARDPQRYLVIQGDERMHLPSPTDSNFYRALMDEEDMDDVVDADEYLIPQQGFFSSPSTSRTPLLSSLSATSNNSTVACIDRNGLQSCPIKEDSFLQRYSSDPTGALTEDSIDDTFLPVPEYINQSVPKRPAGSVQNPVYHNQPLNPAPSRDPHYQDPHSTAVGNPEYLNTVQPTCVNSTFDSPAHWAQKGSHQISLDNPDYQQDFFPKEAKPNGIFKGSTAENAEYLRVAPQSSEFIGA

IC50 | Structure (SMILES)
≤ 10 nM | O=C(C=CCN1CCCC1)Nc1cccc(Nc2cc(Nc3ccc(F)c(Cl)c3)ncn2)c1
≤ 10 nM | CN(C)C/C=C/C(=O)Nc1cccc(Nc2cc(Nc3ccc(F)c(Cl)c3)ncn2)n1

Each compound was assayed against EGFR (human), P00533 [WT].
Chain of EGFR (human), P00533 [WT] (P00533 whole entry, looked up): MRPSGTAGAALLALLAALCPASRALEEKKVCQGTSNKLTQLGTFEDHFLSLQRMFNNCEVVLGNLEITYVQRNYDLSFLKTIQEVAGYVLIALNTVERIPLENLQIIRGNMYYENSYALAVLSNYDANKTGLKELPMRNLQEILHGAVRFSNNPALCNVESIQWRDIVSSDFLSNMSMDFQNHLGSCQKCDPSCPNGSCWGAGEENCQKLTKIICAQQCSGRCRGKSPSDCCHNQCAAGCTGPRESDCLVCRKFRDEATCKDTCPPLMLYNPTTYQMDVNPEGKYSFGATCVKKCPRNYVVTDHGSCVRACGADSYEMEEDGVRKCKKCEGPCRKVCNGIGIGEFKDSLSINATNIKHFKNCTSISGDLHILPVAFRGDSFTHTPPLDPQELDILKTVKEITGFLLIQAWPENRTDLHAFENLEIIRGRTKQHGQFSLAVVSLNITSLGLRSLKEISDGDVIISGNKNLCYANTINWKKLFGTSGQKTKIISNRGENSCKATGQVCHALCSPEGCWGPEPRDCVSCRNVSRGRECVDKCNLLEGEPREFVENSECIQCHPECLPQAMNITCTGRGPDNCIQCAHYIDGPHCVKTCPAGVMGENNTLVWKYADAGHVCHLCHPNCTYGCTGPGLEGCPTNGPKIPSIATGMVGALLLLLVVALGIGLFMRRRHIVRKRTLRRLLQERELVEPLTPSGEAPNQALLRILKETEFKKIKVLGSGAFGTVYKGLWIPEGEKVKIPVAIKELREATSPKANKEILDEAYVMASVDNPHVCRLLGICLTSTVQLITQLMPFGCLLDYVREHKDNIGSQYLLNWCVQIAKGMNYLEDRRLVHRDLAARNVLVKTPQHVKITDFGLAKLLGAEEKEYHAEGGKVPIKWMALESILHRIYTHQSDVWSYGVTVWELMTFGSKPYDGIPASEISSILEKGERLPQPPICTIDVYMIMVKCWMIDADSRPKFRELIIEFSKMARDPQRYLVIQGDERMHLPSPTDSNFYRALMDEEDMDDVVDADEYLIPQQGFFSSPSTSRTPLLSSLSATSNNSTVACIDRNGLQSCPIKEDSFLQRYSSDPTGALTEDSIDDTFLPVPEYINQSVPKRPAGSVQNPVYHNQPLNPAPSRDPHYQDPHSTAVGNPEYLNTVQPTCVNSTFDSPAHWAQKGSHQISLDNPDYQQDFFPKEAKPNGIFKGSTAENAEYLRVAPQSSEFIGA

Structure (SMILES) | IC50
CC=CC(=O)c1cccc(Nc2cc(Nc3ccc(Oc4ccccc4)cc3)ncn2)c1 | ≤ 10 nM
C=CC(=O)Nc1cccc(Nc2cc(N3CCc4ccccc43)ncn2)c1 | ≤ 10 nM
C=CS(=O)(=O)Nc1cccc(Nc2cc(Nc3cccc(C)c3)ncn2)c1 | ≤ 10 nM
C=CC(=O)Nc1cccc(Nc2cc(Nc3ccc(Br)cc3F)ncn2)c1 | ≤ 10 nM
CC#CC(=O)c1cccc(Nc2cc(Nc3ccc(Oc4ccccc4)cc3)ncn2)c1 | ≤ 10 nM
N#CC1(C(=O)Nc2cccc(Nc3cc(Nc4ccc(F)c(Cl)c4)ncn3)c2)CC1 | ≤ 10 nM
C=CS(=O)(=O)Nc1cccc(Nc2cc(Nc3ccc(OCc4cccc(F)c4)c(Cl)c3)ncn2)c1 | ≤ 10 nM
O=C(Nc1cccc(Nc2cc(Nc3ccc(F)c(Cl)c3)ncn2)c1)C1(C(F)(F)F)CC1 | ≤ 10 nM
C=CC(=O)Nc1cccc(Nc2cc(Nc3ccc(Oc4ccccc4)cc3)ncn2)c1 | ≤ 10 nM
C=CC(=O)Nc1ccc(Nc2cc(Nc3cccc(Br)c3)ncn2)cc1 | ≤ 10 nM
O=C(C=CCN1CCCC1)Nc1cccc(Nc2cc(Nc3ccc(F)c(Cl)c3)ncn2)c1 | ≤ 10 nM
C=CS(=O)(=O)Nc1cccc(Nc2cc(Nc3ccc(F)c(Cl)c3)ncn2)c1 | ≤ 10 nM
C=CC(=O)N1CCC(Nc2cc(Nc3ccc(F)c(Cl)c3)ncn2)C1 (stereo not drawn) | ≤ 10 nM
C=CC(=O)Nc1cccc(Nc2cc(Nc3ccc(OCc4ccccn4)c(Cl)c3)ncn2)c1 | ≤ 10 nM
O=C(CCl)Nc1cccc(Nc2cc(Nc3ccc(F)c(Cl)c3)ncn2)c1 | ≤ 10 nM
C=CC(=O)Nc1cccc(Nc2cc(Nc3ccc(F)c(Cl)c3)ncn2)c1 | ≤ 10 nM
C#Cc1cccc(Nc2cc(Nc3cccc(NC(=O)C=C)c3)ncn2)c1 | ≤ 10 nM
C=CC(=O)N1CCCC(Nc2cc(Nc3ccc(F)c(Cl)c3)ncn2)C1 (stereo not drawn) | ≤ 10 nM
C=CC(=O)Nc1cccc(Nc2cc(Nc3cccc(Oc4ccccc4)c3)ncn2)c1 | ≤ 10 nM
C=CC(=O)Nc1cccc(Nc2cc(Nc3cccc(Br)c3)ncn2)c1 | ≤ 10 nM
CC(Cl)C(=O)Nc1cccc(Nc2cc(Nc3ccc(F)c(Cl)c3)ncn2)c1 (stereo not drawn) | ≤ 10 nM
C=CC(=O)Nc1cccc(Nc2cc(Nc3ccccc3)ncn2)c1 | ≤ 10 nM

Other lines, results leading:

IC50 | Structure (SMILES)
≤ 10 nM | Cc1cccc(Oc2cc(Nc3cccc(NC(=O)C=CCN(C)C)n3)ncn2)c1
≤ 10 nM | CN(C)C/C=C/C(=O)Nc1cccc(Nc2cc(Oc3ccc(Oc4ccccc4)cc3)ncn2)n1
≤ 10 nM | Cc1ccc(NC(=O)/C=C/CN(C)C)cc1Nc1cc(Nc2ccc(F)c(Cl)c2)ncn1
≤ 10 nM | C=CC(=O)N(C)c1cccc(Nc2cc(Nc3ccc(Oc4ccccc4)cc3)ncn2)n1
≤ 10 nM | C=CC(=O)Nc1cccc(Nc2cc(Nc3cccc(C)c3)ncn2)c1
≤ 10 nM | C=CC(=O)Nc1cccc(Nc2cc(Nc3ccccc3)ncn2)n1
≤ 10 nM | C=CC(=O)Nc1cccc(Nc2cc(Oc3cccc(C)c3)ncn2)n1
≤ 10 nM | CN(C)C/C=C/C(=O)Nc1cccc(Nc2cc(Oc3ccc(F)c(Cl)c3)ncn2)c1
≤ 10 nM | C=CS(=O)(=O)Nc1cccc(Nc2cc(Oc3cccc(C(F)(F)F)c3)ncn2)c1
≤ 10 nM | C=CC(=O)Nc1cccc(Nc2cc(Nc3ccc(Oc4ccccc4)cc3)ncn2)n1
≤ 10 nM | C/C=C/C(=O)Nc1cccc(Nc2cc(Nc3cccc(Br)c3)ncn2)c1
≤ 10 nM | C=CC(=O)Nc1cccc(Nc2cc(Oc3ccc(OC)cc3)ncn2)n1
≤ 10 nM | CN(C)C/C=C/C(=O)N(C)c1cccc(Nc2cc(Nc3ccc(Oc4ccccc4)cc3)ncn2)n1
≤ 10 nM | CN(C)C/C=C/C(=O)Nc1cccc(Nc2cc(Nc3ccc(OCc4cccc(F)c4)c(Cl)c3)ncn2)c1
≤ 10 nM | CN(C)C/C=C/C(=O)Nc1cccc(Nc2cc(Nc3ccc(F)c(Cl)c3)ncn2)n1
≤ 10 nM | Cc1cccc(Nc2cc(Nc3cccc(NC(=O)/C=C/CN(C)C)c3)ncn2)c1
≤ 10 nM | C=CC(=O)Nc1cccc(Nc2cc(Oc3cccc(OC)c3)ncn2)n1
≤ 10 nM | COc1ccc(NC(=O)/C=C/CN(C)C)cc1Nc1cc(Nc2ccc(F)c(Cl)c2)ncn1
≤ 10 nM | CN(C)C/C=C/C(=O)Nc1cccc(Nc2cc(Nc3ccc(OCc4ccccn4)c(Cl)c3)ncn2)c1
≤ 10 nM | CN(C)C/C=C/C(=O)Nc1cccc(Nc2cc(Nc3ccccc3)ncn2)n1
≤ 10 nM | CN(C)C/C=C/C(=O)Nc1cccc(Nc2cc(Nc3ccc(F)c(Cl)c3)ncn2)c1
≤ 10 nM | C=CC(=O)Nc1cccc(Nc2cc(Oc3cccc(C(F)(F)F)c3)ncn2)c1
≤ 10 nM | C=CC(=O)Nc1cccc(Nc2cc(N(C)c3ccccc3)ncn2)c1
≤ 10 nM | C=CC(=O)Nc1cccc(Nc2cc(Oc3ccc(Oc4ccccc4)cc3)ncn2)n1
